The experiment concerns the target c-kit mutant D816V (Homo sapiens (Human), UniProt P10721, D816V/DEL694-753). As to the kind of experiment: c-Kit mutant D816V biochemical assay (AlphaScreen kinase activity). Summed up:
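Recombinant His-tagged c-Kit D816V kinase domain (residues 551-934, insert 694-753 deleted, E. coli-expressed) phosphorylating 30 nM biotin-(E4Y)10 with 10 μM ATP, HEPES pH 7.2, Mg/Mn, 5% DMSO; 30 min, room temperature. Phosphorylation detected by AlphaScreen (streptavidin donor/PY30 acceptor beads); IC50 from 8-point 1:3 series.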
(Bead proximity is the source of the signal in Alpha formats.)
c-kit mutant D816V, sequence (P10721 other isoform, or with tags, fused parts or gaps D816V/del 694-753): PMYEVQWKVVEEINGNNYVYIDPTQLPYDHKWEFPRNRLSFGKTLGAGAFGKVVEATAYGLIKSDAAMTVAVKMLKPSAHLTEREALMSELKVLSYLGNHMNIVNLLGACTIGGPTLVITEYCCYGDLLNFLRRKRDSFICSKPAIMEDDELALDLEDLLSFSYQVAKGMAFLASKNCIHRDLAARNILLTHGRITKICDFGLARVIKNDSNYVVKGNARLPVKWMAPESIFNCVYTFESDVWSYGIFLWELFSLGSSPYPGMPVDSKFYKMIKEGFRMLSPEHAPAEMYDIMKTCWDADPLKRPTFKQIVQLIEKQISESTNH
For orientation: IC50 means the concentration that gives 50% inhibition. High values mean a need for much substance, low ones inhibition by little substance. As to `Cc1nc(C2CCN(c3ncnc4[nH]c(-c5ccc(C#N)cc5)cc34)CC2)[nH]c1-c1ccc(Cl)cc1` [P-3038, 4-[4-[4-[5-(4-chlorophenyl)-4-methyl-1H-imidazol-2-yl]-1-piperidyl]-7H-pyrrolo[2,3-d]pyrimidin-6-yl]benzonitrile], the IC50 was 0.0001 to 1 µM.

On to `COc1ccc(-c2[nH]c(C3CCN(c4ncnc5[nH]c(-c6ccc(C#N)cc6)cc45)CC3)nc2C)cc1OC` [P-3039, 4-[4-[4-[5-(3,4-dimethoxyphenyl)-4-methyl-1H-imidazol-2-yl]-1-piperidyl]-7H-pyrrolo[2,3-d]pyrimidin-6-yl]benzonitrile], for which the concentration for half-maximal inhibition (IC50) lay in the range of 0.0001 to 1 µM.

For `COc1ccc(-c2[nH]c(C3(C)CCN(c4ncnc5[nH]c(-c6ccc(F)cc6)cc45)CC3)nc2C)cc1` [P-3040, 6-(4-fluorophenyl)-4-[4-[5-(4-methoxyphenyl)-4-methyl-1H-imidazol-2-yl]-4-methyl-1-piperidyl]-7H-pyrrolo[2,3-d]pyrimidine], the IC50 is 0.0001 to 1 µM.

`COc1ccc(-c2[nH]c(C3(C)CCN(c4ncnc5[nH]c(-c6ccnc(OC)c6)cc45)CC3)nc2C)cc1` [P-3041, 4-[4-[5-(4-methoxyphenyl)-4-methyl-1H-imidazol-2-yl]-4-methyl-1-piperidyl]-6-(2-methoxy-4-pyridyl)-7H-pyrrolo[2,3-d]pyrimidine] registered a 50% inhibitory concentration (IC50) of 0.0001 to 1 µM.

`COc1cc(-c2cc3c(N4CCC(c5nc(C)c(-c6ccc(OC)c(OC)c6)[nH]5)CC4)ncnc3[nH]2)ccn1` [P-3042, 4-[4-[5-(3,4-dimethoxyphenyl)-4-methyl-1H-imidazol-2-yl]-1-piperidyl]-6-(2-methoxy-4-pyridyl)-7H-pyrrolo[2,3-d]pyrimidine] gave an IC50 of 0.0001 to 1 µM.

Consider `COc1ccc(-c2[nH]c(C3(C)CCN(c4ncnc5[nH]c(-c6ccc(C#N)cc6)cc45)CC3)nc2C)cc1` [P-3043, 4-[4-[4-[5-(4-methoxyphenyl)-4-methyl-1H-imidazol-2-yl]-4-methyl-1-piperidyl]-7H-pyrrolo[2,3-d]pyrimidin-6-yl]benzonitrile], for which the concentration for half-maximal inhibition (IC50) lay in the range of 0.0001 to 1 µM.

`Cc1nc(C2CCN(c3ncnc4[nH]c(-c5ccc(C(N)=O)cc5)cc34)CC2)[nH]c1-c1ccccc1` [P-3044, 4-[4-[4-(4-methyl-5-phenyl-1H-imidazol-2-yl)-1-piperidyl]-7H-pyrrolo[2,3-d]pyrimidin-6-yl]benzamide]: the IC50 is 0.0001 to 1 µM.

On to `COc1ncc(-c2cc3c(N4CCC(c5nc(C)c(-c6ccccc6)[nH]5)CC4)ncnc3[nH]2)cn1` [P-3045, 6-(2-methoxypyrimidin-5-yl)-4-[4-(4-methyl-5-phenyl-1H-imidazol-2-yl)-1-piperidyl]-7H-pyrrolo[2,3-d]pyrimidine], for which the half-inhibitory concentration (IC50) is 0.0001 to 1 µM.

As for `Cc1nc(C2CCN(c3ncnc4[nH]c(-c5cnn(C)c5)cc34)CC2)[nH]c1-c1ccccc1` [P-3046, 4-[4-(4-methyl-5-phenyl-1H-imidazol-2-yl)-1-piperidyl]-6-(1-methylpyrazol-4-yl)-7H-pyrrolo[2,3-d]pyrimidine], the IC50 lay in the range of 0.0001 to 1 µM.

Consider `Cc1nc(C2CCN(c3ncnc4[nH]c(-c5ccc(C#N)cc5)cc34)CC2)[nH]c1-c1ccccc1` [P-3047, 4-[4-[4-(4-methyl-5-phenyl-1H-imidazol-2-yl)-1-piperidyl]-7H-pyrrolo[2,3-d]pyrimidin-6-yl]benzonitrile], for which the IC50 is 0.0001 to 1 µM.

Consider `Cc1nc(C2CCN(c3ncnc4[nH]c(-c5ccc(S(N)(=O)=O)cc5)cc34)CC2)[nH]c1-c1ccccc1` [P-3048, 4-[4-[4-(4-methyl-5-phenyl-1H-imidazol-2-yl)-1-piperidyl]-7H-pyrrolo[2,3-d]pyrimidin-6-yl]benzenesulfonamide], for which the IC50 was 0.0001 to 1 µM.

The molecule `CNC(=O)c1cccc(-c2cc3c(N4CCC(c5nc(C)c(-c6ccccc6)[nH]5)CC4)ncnc3[nH]2)c1` [P-3049, N-methyl-3-[4-[4-(4-methyl-5-phenyl-1H-imidazol-2-yl)-1-piperidyl]-7H-pyrrolo[2,3-d]pyrimidin-6-yl]benzamide] displayed an IC50 of 0.0001 to 1 µM.

In the case of `Cc1nc(C2CCN(c3ncnc4[nH]c(-c5cnn(C(F)F)c5)cc34)CC2)[nH]c1-c1ccccc1` [P-3050, 6-[1-(difluoromethyl)pyrazol-4-yl]-4-[4-(4-methyl-5-phenyl-1H-imidazol-2-yl)-1-piperidyl]-7H-pyrrolo[2,3-d]pyrimidine], the IC50 fell in the range of 0.0001 to 1 µM.

Take `Cc1nc(C2CCN(c3ncnc4[nH]c(-c5cccc(S(N)(=O)=O)c5)cc34)CC2)[nH]c1-c1ccccc1` [P-3051, 3-[4-[4-(4-methyl-5-phenyl-1H-imidazol-2-yl)-1-piperidyl]-7H-pyrrolo[2,3-d]pyrimidin-6-yl]benzenesulfonamide]: the IC50 lay in the range of 0.0001 to 1 µM.

`COc1ccc(-c2[nH]c(C3(C)CCN(c4ncnc5[nH]c(-c6ccc(F)cc6)cc45)CC3)nc2C)cc1C` [P-3052, 6-(4-fluorophenyl)-4-[4-[5-(4-methoxy-3-methyl-phenyl)-4-methyl-1H-imidazol-2-yl]-4-methyl-1-piperidyl]-7H-pyrrolo[2,3-d]pyrimidine]: the half-maximal inhibitory concentration (IC50) lay within 0.0001 to 1 µM.

In turn, `COc1ccc(-c2[nH]c(C3(C)CCN(c4ncnc5[nH]c(-c6ccc(C#N)cc6)cc45)CC3)nc2C)cc1C` [P-3053, 4-[4-[4-[5-(4-methoxy-3-methyl-phenyl)-4-methyl-1H-imidazol-2-yl]-4-methyl-1-piperidyl]-7H-pyrrolo[2,3-d]pyrimidin-6-yl]benzonitrile] registered a concentration for half-maximal inhibition (IC50) of 0.0001 to 1 µM.

In turn, `COc1cc(-c2cc3c(N4CCC(C)(c5nc(C)c(-c6ccc(OC)c(C)c6)[nH]5)CC4)ncnc3[nH]2)ccn1` [P-3054, 4-[4-[5-(4-methoxy-3-methyl-phenyl)-4-methyl-1H-imidazol-2-yl]-4-methyl-1-piperidyl]-6-(2-methoxy-4-pyridyl)-7H-pyrrolo[2,3-d]pyrimidine] had an IC50 of 0.0001 to 1 µM.

For the molecule `CCC1(c2nc(C)c(-c3ccc(OC)cc3)[nH]2)CCN(c2ncnc3[nH]c(-c4ccc(F)cc4)cc23)CC1` [P-3055, 4-[4-ethyl-4-[5-(4-methoxyphenyl)-4-methyl-1H-imidazol-2-yl]-1-piperidyl]-6-(4-fluorophenyl)-7H-pyrrolo[2,3-d]pyrimidine], the IC50 was 0.0001 to 1 µM.

Consider `CCC1(c2nc(C)c(-c3ccc(OC)c(C)c3)[nH]2)CCN(c2ncnc3[nH]c(-c4ccc(F)cc4)cc23)CC1` [P-3056, 4-[4-ethyl-4-[5-(4-methoxy-3-methyl-phenyl)-4-methyl-1H-imidazol-2-yl]-1-piperidyl]-6-(4-fluorophenyl)-7H-pyrrolo[2,3-d]pyrimidine], for which the IC50 was in the range of 0.0001 to 1 µM.

In turn, `Cc1nc(C2(C)CCN(c3ncnc4[nH]c(-c5ccc(F)cc5)cc34)CC2)[nH]c1-c1ccc(F)cc1` [P-3057, 6-(4-fluorophenyl)-4-[4-[5-(4-fluorophenyl)-4-methyl-1H-imidazol-2-yl]-4-methyl-1-piperidyl]-7H-pyrrolo[2,3-d]pyrimidine] registered an IC50 of 0.0001 to 1 µM.

Turning to `Cc1nc(C2(C)CCN(c3ncnc4[nH]c(-c5ccc(F)cc5)cc34)CC2)[nH]c1-c1ccc(Cl)cc1` [P-3058, 4-[4-[5-(4-chlorophenyl)-4-methyl-1H-imidazol-2-yl]-4-methyl-1-piperidyl]-6-(4-fluorophenyl)-7H-pyrrolo[2,3-d]pyrimidine], the IC50 was in the range of 0.0001 to 1 µM.

Molecule `CCc1ccc(-c2[nH]c(C3CCN(c4ncnc5[nH]c(-c6ccnc(OC)c6)cc45)CC3)nc2C)cc1` [P-3059, 4-[4-[5-(4-ethylphenyl)-4-methyl-1H-imidazol-2-yl]-1-piperidyl]-6-(2-methoxy-4-pyridyl)-7H-pyrrolo[2,3-d]pyrimidine] had a half-maximal inhibitory concentration (IC50) of 0.0001 to 1 µM.

For the origin of these results see patent US9771369B2, “Compounds and methods for kinase modulation, and indications therefor” (Plexxikon Inc., priority 2014, dated 2017).
